Values of other authors as cited in patent US20240207248A1, “METHODS, KITS AND COMPOSITIONS FOR REDUCING CHROMOSOMAL INSTABILITY IN CANCER CELLS” (BARUCH S. BLUMBERG INSTITUTE, priority 2021, published 2024).

System: aneuploid primary mouse embryonic fibroblasts carrying Robertsonian fusion chromosomes
Conditions: energy and proteotoxic stress-inducing compounds

Row | Compound | selectivity against aneuploid primary mouse embryonic fibroblasts
1 | C=CCNC1=C2C[C@@H](C)C[C@H](OC)[C@H](O)[C@@H](C)/C=C(\C)[C@H](OC(N)=O)[C@@H](OC)/C=C\C=C(/C)C(=O)NC(=CC1=O)C2=O [17-AAG] | showed selectivity
2 | NC(=O)c1ncn([C@@H]2O[C@H](CO)[C@@H](O)[C@H]2O)c1N [AICAR] | showed selectivity
